Measurements from the NIST ThermoML archive (doi:10.1016/j.fluid.2004.09.013).
Numbers after ± are expanded uncertainties.

Settings: for mass density: Fluid (supercritical or subcritical phases), Vibrating tube method; for vapor or sublimation pressure: Liquid

C/C=C/C [(E)-2-butene]
Settings	mass density [kg/m3]
328.22 K, 39992 kPa	620.09 ± 1.4
333.22 K, 1143 kPa	554.92 ± 1.1
333.22 K, 5001 kPa	564.29 ± 1.2
333.22 K, 9997 kPa	574.58 ± 1.2
333.22 K, 15004 kPa	583.44 ± 1.2
333.22 K, 19992 kPa	591.23 ± 1.3
333.22 K, 25005 kPa	598.27 ± 1.3
333.22 K, 30004 kPa	604.66 ± 1.4
333.22 K, 35005 kPa	610.54 ± 1.4
333.22 K, 39985 kPa	615.98 ± 1.4
338.22 K, 1226 kPa	548.04 ± 1.1
338.22 K, 4986 kPa	557.85 ± 1.1
338.22 K, 10000 kPa	568.81 ± 1.2
338.22 K, 15000 kPa	578.1 ± 1.2
338.22 K, 20000 kPa	586.27 ± 1.3
338.22 K, 25000 kPa	593.57 ± 1.3
338.22 K, 29994 kPa	600.18 ± 1.3
338.22 K, 35008 kPa	606.28 ± 1.4
338.22 K, 39996 kPa	611.89 ± 1.4
343.22 K, 1315 kPa	540.98 ± 1.1
343.22 K, 29988 kPa	595.68 ± 1.3
343.22 K, 34990 kPa	601.95 ± 1.4
343.22 K, 39986 kPa	607.75 ± 1.4
343.23 K, 4999 kPa	551.32 ± 1.1
343.23 K, 10003 kPa	562.95 ± 1.2
343.23 K, 14999 kPa	572.73 ± 1.2
343.23 K, 19997 kPa	581.25 ± 1.3
343.23 K, 25007 kPa	588.85 ± 1.3
348.23 K, 1414 kPa	533.71 ± 1.1
348.23 K, 4992 kPa	544.57 ± 1.1
348.23 K, 10005 kPa	556.98 ± 1.2
348.23 K, 14992 kPa	567.27 ± 1.2
348.23 K, 19998 kPa	576.19 ± 1.2
348.23 K, 25013 kPa	584.1 ± 1.3
348.23 K, 29992 kPa	591.18 ± 1.3
348.23 K, 35003 kPa	597.68 ± 1.4
348.23 K, 39996 kPa	603.63 ± 1.4
353.23 K, 1522 kPa	526.23 ± 1.1
353.23 K, 4999 kPa	537.68 ± 1.1
353.23 K, 9984 kPa	550.87 ± 1.2
353.23 K, 14991 kPa	561.76 ± 1.2
353.23 K, 20002 kPa	571.1 ± 1.2
353.23 K, 25003 kPa	579.31 ± 1.3
353.23 K, 30000 kPa	586.67 ± 1.3
353.23 K, 35004 kPa	593.37 ± 1.4
353.23 K, 39995 kPa	599.51 ± 1.4
358.23 K, 1641 kPa	518.52 ± 1.1
358.23 K, 4984 kPa	530.51 ± 1.1
358.23 K, 10005 kPa	544.73 ± 1.1
358.23 K, 14998 kPa	556.2 ± 1.2
358.23 K, 20004 kPa	565.97 ± 1.2
358.23 K, 24987 kPa	574.48 ± 1.3
358.23 K, 29994 kPa	582.12 ± 1.3
358.23 K, 35007 kPa	589.05 ± 1.4
358.23 K, 39996 kPa	595.37 ± 1.4
363.23 K, 1765 kPa	510.53 ± 1.1
363.23 K, 5001 kPa	523.21 ± 1.1
363.23 K, 9988 kPa	538.37 ± 1.1
363.23 K, 14981 kPa	550.47 ± 1.2
363.23 K, 19993 kPa	560.72 ± 1.2
363.23 K, 25001 kPa	569.62 ± 1.3
363.23 K, 30001 kPa	577.52 ± 1.3
363.23 K, 34991 kPa	584.64 ± 1.4
363.23 K, 40008 kPa	591.18 ± 1.4
368.24 K, 1900 kPa	502.25 ± 1
368.24 K, 4996 kPa	515.59 ± 1.1
368.24 K, 9996 kPa	531.94 ± 1.1
368.24 K, 14998 kPa	544.78 ± 1.2
368.24 K, 19997 kPa	555.48 ± 1.2
368.24 K, 25002 kPa	564.74 ± 1.3
368.24 K, 29994 kPa	572.92 ± 1.3
368.24 K, 35003 kPa	580.31 ± 1.4
368.24 K, 39988 kPa	587 ± 1.4
373.23 K, 2021 kPa	493.52 ± 1
373.23 K, 4987 kPa	507.69 ± 1.1
373.23 K, 9991 kPa	525.4 ± 1.1
373.23 K, 14991 kPa	538.98 ± 1.2
373.23 K, 19999 kPa	550.26 ± 1.2
373.24 K, 24990 kPa	559.83 ± 1.3
373.24 K, 29992 kPa	568.32 ± 1.3
373.24 K, 34981 kPa	575.91 ± 1.4
373.24 K, 39982 kPa	582.83 ± 1.4
378.24 K, 2209 kPa	484.69 ± 1
378.24 K, 5019 kPa	499.59 ± 1.1
378.24 K, 10006 kPa	518.69 ± 1.1
378.24 K, 14990 kPa	533.06 ± 1.2
378.24 K, 20005 kPa	544.87 ± 1.2
378.24 K, 25019 kPa	554.94 ± 1.2
378.24 K, 30003 kPa	563.71 ± 1.3
378.24 K, 34996 kPa	571.57 ± 1.4
378.24 K, 40001 kPa	578.7 ± 1.4
383.24 K, 2379 kPa	475.33 ± 0.99
383.24 K, 5004 kPa	490.95 ± 1
383.24 K, 10000 kPa	511.79 ± 1.1
383.24 K, 14991 kPa	527.07 ± 1.1
383.24 K, 19991 kPa	539.46 ± 1.2
383.24 K, 24987 kPa	549.92 ± 1.2
383.24 K, 30002 kPa	559.07 ± 1.3
383.24 K, 34999 kPa	567.19 ± 1.3
383.24 K, 39984 kPa	574.5 ± 1.4
388.24 K, 2560 kPa	465.51 ± 0.97
388.24 K, 4995 kPa	481.89 ± 1
388.24 K, 9989 kPa	504.7 ± 1.1
388.24 K, 15004 kPa	521.06 ± 1.1
388.24 K, 20002 kPa	534.05 ± 1.2
388.24 K, 25003 kPa	544.95 ± 1.2
388.24 K, 29994 kPa	554.4 ± 1.3
388.24 K, 34999 kPa	562.8 ± 1.3
388.24 K, 39985 kPa	570.33 ± 1.4

Settings	vapor or sublimation pressure [kPa]
336.87 K	680.67 ± 2.4
345.89 K	842.53 ± 3
354.94 K	1035.4 ± 3.6
363.31 K	1235 ± 4.2
372.35 K	1486.5 ± 5
376.81 K	1618.2 ± 5.5
381.64 K	1778.4 ± 6
385.75 K	1920.4 ± 6.5
